Reference: patent US20250101032A1, “EXATECAN DERIVATIVES AND ANTIBODY-DRUG CONJUGATES THEREOF” (priority 2021, published 2025)
Converted amounts (≈) assume the structure as drawn. Read-outs that look alike come from different tables or passages of the source.

Assays:
NCI-N87 = experiment: In vitro cytotoxicity assay (CellTiter-Glo), NCI-N87; format: cell-based, Human; details: read-out: Cytotoxicity IC50
Experimental: (§1) Human tumor cell lines, SK-BR-3, NCI-H292, HT-29, MCF-7, NCI-N87, and FaDu were obtained from ATCC. NCI-H292, HT-29, MCF-7, and NCI-N87 cells were cultured in RPMI-1640 media (Gibco, Life Technologies) supplemented with 10% v/v heat inactivated FBS (Corning), FaDu cells were maintained in DMEM media (Gibco, Life Technologies) supplemented with 10% v/v heat inactivated FBS (Corning). SK-BR-3 cells were maintained in McCoys 5A medium (Gibco, Life Technologies) supplemented with 10% […] heat inactivated FBS (Corning) at 37° C. in a humidified incubator containing 5% CO2.
(§2) Lyophilized compounds were dissolved in 100% dry DMSO, aliquots frozen and stored at −80° C. Concentration and purity of compound stock solutions in DMSO were determined by RP-HPLC Agilent 1100 platform with 1200 DAD and SofTA ELSD detectors, and the Agilent 6150 MS system (UV/VIS, ELSD purity and MS compound identity confirmation). Shimadzu 3.0 mm×30 mm XR ODS 2.2 μm column was run at 50° C., 1.5 mL/min. Solvent A: 0.1% Formic acid in water, Solvent B: 0.08% Formic acid in methanol-Gradient: 5%-100% B in 3.0 min, 100% solvent B for 0.3 min. Concentration of compounds in 100% DMSO determined by ELS ranged from 1-6 mM.
(§3) Cells were plated in 96-well white flat-bottomed plates (Corning) at 2.0×10^3 cells per well in 100 μL culture medium. After incubation for 24 hours, test compounds were added at a range of concentrations as ten point serial dilution as duplicates or triplicates. Following further incubation for 6 days 37° C., 5% CO2, cell viability was assessed with the use of a CellTiter-Glo Luminescent Cell Viability Assay (Promega). Luminescence was measured using the GloMax instrument (Promega). […] For a subset of payloads, each treatment was independently repeated two to eight times, and IC50 values were averaged. […] Standard deviation (stdev) is shown as (N/A) for treatment performed once.

HT29 = experiment: In vitro cytotoxicity assay (CellTiter-Glo), HT29; format: cell-based, Human; details: read-out: Cytotoxicity IC50
Experimental: as §1, §2, §3

SKBR3 = experiment: In vitro cytotoxicity assay (CellTiter-Glo), SKBR3; format: cell-based, Human; details: read-out: Cytotoxicity IC50
Experimental: as §1, §2, §3

MCF7 = experiment: In vitro cytotoxicity assay (CellTiter-Glo), MCF7; format: cell-based, Human; details: read-out: Cytotoxicity IC50
Experimental: as §1, §2, §3

NCI-H292 = experiment: In vitro cytotoxicity assay (CellTiter-Glo), NCI-H292; format: cell-based, Human; details: read-out: Cytotoxicity IC50
Experimental: as §1, §2, §3

FaDu = experiment: In vitro cytotoxicity assay (CellTiter-Glo), FaDu; format: cell-based, Human; details: read-out: Cytotoxicity IC50
Experimental: as §1, §2, §3

physchem = details: 25 °C, pH 7.4, aqueous buffer, kinetic from dmso stock
Experimental: In-vitro kinetic solubilities of the compounds in PBS pH 7.4 buffer at 25° C. were determined by diluting compounds from 100% dimethyl sulfoxide (DMSO) into PBS buffer and measuring absorbance at 490, 590 and 650 nm. Stock concentrations in 100% DMSO were provided at 1-6 mM in 100% DMSO. Kinetic solubilities were determined by diluting test compounds from 100% DMSO into PBS pH 7.4 buffer, as duplicate, 10 point 2-fold serial dilution starting at 100× dilution of stock DMS solution into PBS buffer in a clear, flat bottom polystyrene assay plates. Total assay volume was 200 microliters. Solutions were mixed by plate shaking, incubated for 30 m at 25° C., and absorbance was read at 490, 590 and 650 nm. […] in PBS buffer was used as a blank. For each test compound, average optical density (GD) at each concentration was determined by averaging the blank corrected sum of absorption at 490 nm, 590 nm and 650 nm, over duplicate measurements. Turbidity threshold optical density value was set as a sum of mean plus two standard deviations of the mean of absorbances at 490, 590 and 650 nm for 1% (v/v) DMSO in PBS pH 7.4 buffer. Highest soluble concentration (micromolar) corresponded to the highest concentration at which average optical density was below optical density value set for turbidity threshold (Table 4). Amiodarone and propranolol were used as low and high solubility controls respectively.

SKOV3 = experiment: In vitro cytotoxicity assay (CellTiter-Glo), SKOV3; format: cell-based; details: read-out: Cytotoxicity IC50
Experimental: (§4) Lyophilized compounds were dissolved in 100% dry DMSO, aliquots frozen and stored at −80° C. […] Shimadzu 3.0 mm×30 mm XR ODS 2.2 μm column was run at 50° C., 1.5 mL/min. Solvent A: 0.1% Formic acid in water, Solvent B: 0.08% Formic acid in methanol-Gradient: 5%-100% B in 3.0 min, 100% solvent B for 0.3 min.
as §3

BXPC3 = experiment: In vitro cytotoxicity assay (CellTiter-Glo), BXPC3; format: cell-based; details: read-out: Cytotoxicity IC50
Experimental: as §4, §3

Row | Compound | IC50 (NCI-N87; Homo sapiens, NCI-N87, 144 h) [nM] | IC50 (HT29; Homo sapiens, HT-29, 144 h) [nM] | IC50 (SKBR3; Homo sapiens, SK-BR-3, 144 h) [nM] | IC50 (MCF7; Homo sapiens, MCF7, 144 h) [nM] | IC50 (NCI-H292; Homo sapiens, NCI-H292, 144 h) [nM] | IC50 (FaDu; Homo sapiens, FaDu, 144 h) [nM] | solubility at 30 min (physchem) [µM] | IC50 (SKOV3; SKOV3 cells, 6 days incubation, mean of IC50 values) [nM] | IC50 (NCI-N87; NCI-N87 cells, 6 days incubation, mean of IC50 values) [nM] | IC50 (HT29; HT29 cells, 6 days incubation, mean of IC50 values) [nM] | IC50 (SKBR3; SKBR3 cells, 6 days incubation, mean of IC50 values) [nM] | IC50 (MCF7; MCF7 cells, 6 days incubation, mean of IC50 values) [nM] | IC50 (NCI-H292; NCI-H292 cells, 6 days incubation, mean of IC50 values) [nM] | IC50 (FaDu; FaDu cells, 6 days incubation, mean of IC50 values) [nM] | IC50 (BXPC3; BXPC3 cells, 6 days incubation, mean of IC50 values) [nM] | IC50 (SKOV3; Homo sapiens, SK-OV-3, 144 h) [nM] | IC50 (BXPC3; Homo sapiens, BXPC-3, 144 h) [nM]
1 | CC[C@@]1(O)C(=O)OCc2c1cc1n(c2=O)Cc2c-1nc1cc(F)c(C)c3c1c2[C@@H](NC(=O)c1cc(CO)[nH]n1)CC3 [Compound 168] | 103 | 627 | 32.7 | 19.4 | 77.9 | 9.9 | – | – | – | – | – | – | – | – | – | – | –
2 | CC[C@@]1(O)C(=O)OCc2c1cc1n(c2=O)Cc2c-1nc1cc(F)c(C)c3c1c2[C@@H](NC(=O)c1coc(CO)n1)CC3 [Compound 167] | 34 | 43.5 | 3.5 | 8.9 | 23 | 3 | – | – | – | – | – | – | – | – | – | – | –
3 | CC[C@@]1(O)C(=O)OCc2c1cc1n(c2=O)Cc2c-1nc1cc(F)c(C)c3c1c2[C@@H](NCCNCCN)CC3 [Compound 164] | 22.8 | 32.7 | 10.8 | 5.2 | 30.3 | 8.8 | 10 (≈ 5.22 µg/mL) | – | – | – | – | – | – | – | – | – | –
4 | CC[C@@]1(O)C(=O)OCc2c1cc1n(c2=O)Cc2c-1nc1cc(F)c(C)c3c1c2[C@@H](N(C=O)CCO)CC3 [Compound 163] | 29.4 | 65 | 9.8 | 10.9 | 22.3 | 7.8 | 24 (≈ 12.2 µg/mL) | – | – | – | – | – | – | – | – | – | –
5 | CC[C@@]1(O)C(=O)OCc2c1cc1n(c2=O)Cc2c-1nc1cc(F)c(C)c3c1c2[C@@H](NC(=S)CO)CC3 [Compound 176] | 2.1 | 4.3 | 0.7 | 7.8 | 4.5 | 0.9 | – | – | – | – | – | – | – | – | – | – | –
6 | CC[C@@]1(O)C(=O)OCc2c1cc1n(c2=O)Cc2c-1nc1cc(F)c(C)c3c1c2[C@@H](NC(=O)C#CCO)CC3 [Compound 83] | 159 | 255 | 25.6 | 42.2 | 121 | 16.5 | – | – | – | – | – | – | – | – | – | – | –
7 | SN-38 | – | – | – | – | – | – | – | 3.2 | 4.2 | 5.1 | 1.8 | 4.3 | 2.5 | 2.2 | 0.5 | – | –
8 | CC[C@@]1(O)C(=O)OCc2c1cc1n(c2=O)Cc2c-1nc1cc(F)c(C)c3c1c2[C@@H](NC(=O)CCC(=O)NC(CO)(CO)CO)CC3 [Compound 122] | 2700 | 3400 | 657 | 205 | 1020 | 121 | – | – | – | – | – | – | – | – | – | 819 | 227
9 | CC[C@@]1(O)C(=O)OCc2c1cc1n(c2=O)Cc2c-1nc1cc(F)c(C)c3c1c2[C@@H](N(C)CCO)CC3 [Compound 140] | 1.5 | 1.2 | 0.8 | 0.2 | 3 | 0.3 | 10 (≈ 4.94 µg/mL) | – | – | – | – | – | – | – | – | – | –
10 | CC[C@@]1(O)C(=O)OCc2c1cc1n(c2=O)Cc2c-1nc1cc(F)c(C)c3c1c2[C@@H](NC(=O)CCC1OCCO1)CC3 [Compound 188] | 9 | 13 | 3.4 | 4.9 | 6.6 | 1.5 | 6 (≈ 3.38 µg/mL) | – | – | – | – | – | – | – | – | – | –
